According to patent publication US7897397B2, “Cell fusion promoter and utilization of the same” (Kowa Company, Ltd., priority 2004, dated 2011):

System: myocardial cell/bone marrow cell co-culture system
Test: Cell fusion in myocardial cell/bone marrow cell co-culture, fused cells (MF20- and EGFP-positive) counted by flow cytometry
Format: cell-based, rat
Excerpt: From a 1- to 2-day-old Wistar-Kyoto rat, the heart was removed, and myocardial cells were isolated therefrom and cultured. Bone marrow mononuclear cells separated from the bone marrow of an EGFP (enhanced green fluorescent protein) transgenic rat were introduced into the myocardial cells, followed by co-culture thereof.
Flow cytometry was used to quantitatively determine the number of these fused cells. The cells were fixed with paraformaldehyde in the same manner as above, then fluorescence-immunostained in a suspended state with primary antibody MF20, a biotin-conjugated anti-mouse antibody as secondary antibody and a streptavidin/PerCP-cye5.5 conjugate as tertiary antibody, and analyzed by flow cytometry. 50,000 cells were analyzed for each analysis. […] The cells in the gate R4 in FIG. 2 (D) were confirmed to be fused cells positive to both MF20 and EGFP.
Then, according to a similar manner to that described above, ATP was added at a concentration of 0 mM (control), 1 mM, 2 mM and 3 mM respectively to the myocardial cell/bone marrow cell co-culture system, and the number of fused cells was examined. Each group at the predetermined concentration of ATP was stained in the same manner as in FIG. 2 and analyzed by flow cytometry. The results are shown in the graphs in FIGS. 3A-D.
The result is shown in the graph in FIG. 4. In FIG. 4, the ratio (%) of the number of fused cells to the total number of cells is shown on the ordinate, and the concentration of ATP (0 mM, 1 mM, 2 mM and 3 mM) is shown on the abscissa. The asterisk (*) in FIG. 4 indicates significance (p<0.05) relative to the control group. As a result, it was confirmed that only about 0.1% fused cells were formed in the control group in the absence of ATP, while about 0.5% fused cells that are about 5-times as much as in the control group were formed in the group to which 1 or 2 mM ATP had been added.
According to the method of Minamino et al. (Minamino T., Gaussin V., DeMayo F. J., et al., Circ. Res. 2001; 88:587-592), the heart was removed from a 1- to 2-day-old Wistar-Kyoto rat and myocardial cells were isolated. […]
Then, the number of the fused cells was quantitatively determined by flow cytometry. After 1 week of co-culture, the cells were treated with trypsin and fixed with paraformaldehyde in the same manner as above, fluorescence-immunostained in a suspended state with primary antibody MF20 (labeled with PerCP-cye5.5 and captured as being positive to FL-3), biotin-conjugated anti-mouse Ig's antibody (BD Pharmingen) as secondary antibody, and streptavidin/PerCP-cye5.5 conjugate (BD Pharmingen) as tertiary antibody, and analyzed by flow cytometry. 50,000 cells were analyzed for each analysis. […]

Which results are given for `Nc1ncnc2c1ncn2[C@@H]1O[C@H](COP(=O)(O)OP(=O)(O)OP(=O)(O)O)[C@@H](O)[C@H]1O` [ATP, adenosine 5′-triphosphate]?
number of the fused cells compared with the control group (in words) (1 mM or 2 mM ATP added, flow cytometry, 50,000 cells analyzed): higher than in the control group; fused cells relative to the control group (times as much) (1 or 2 mM ATP added vs control in the absence of ATP): about 5 times; ratio (%) of the number of fused cells to the total number of cells (1 or 2 mM ATP added, 1 week of co-culture, control without ATP about 0.1%): about 0.5%; ratio of the number of fused cells as compared with the control group (in words) (1 or 2 mM ATP added, p<0.05 relative to the control group): increased significantly
